Where “and” joins values, the source holds several entries; their conditions need not be identical. Identical values can stand only once.
Assay: Concentrate storage stability, compound of formula (2) 30 mg/mL in 30% CAPTISOL pH 4.0 (Example 8)
Format: physicochemical
Parameters: key to Appearance 0 h / Appearance 24 h / Appearance 72 h / Appearance 168 h: the term “c/c” refers to clear and colorless
Settings: for Concentration, mg/mL 0 h / Concentration, mg/mL 24 h / Concentration, mg/mL 72 h / Concentration, mg/mL 168 h: 30 mg/mL concentrate in 30% CAPTISOL pH 4.0; for Appearance 0 h / Appearance 24 h / Appearance 72 h / Appearance 168 h / Observed Degradant, Compound of Formula (101), mg/mL 0 h / Observed Degradant, Compound of Formula (101), mg/mL 24 h / Observed Degradant, Compound of Formula (101), mg/mL 72 h / Observed Degradant, Compound of Formula (101), mg/mL 168 h / pH 0 h / pH 24 h / pH 72 h / pH 168 h: concentrate
Method: The storage stability of a liquid concentrate of the Compound of formula (2) (30 mg/mL) in the vehicle 30% CAPTISOL® (w/v) at pH 4.0, was assessed at 4° C. and 25° C. over 7 days, with time points after 1, 3 and 7 days. At each time point samples were assessed for visual appearance, pH, and concentration and purity by HPLC (XBridge Phenyl Column (Waters); UV absorbance detector at 272 nm; mobile phase a step gradient of aqueous acetonitrile containing 0.1% (v/v) formic acid).
The selected vehicle, CAPTISOL® (30% w/v) in water with pH adjusted to 4.0, was prepared by accurately weighing 30 grams of CAPTISOL® into a 150 mL beaker and dissolved with 45 mL of water. The pH was adjusted to pH 4.0 by addition of 0.1N HCl. Subsequently, the vehicle was transferred to a volumetric flask and brought to 100 mL final volume by addition of water. After incubation at a temperature of about 25° C. for 30 minutes, the pH of the vehicle was re-adjusted to pH 4.0 by addition of 0.1N HCl. The vehicle formed a clear, colorless solution.
A concentrated solution of the compound of formula (2) was prepared as follows. A stir bar and 30 mL of vehicle were added to a 150 mL beaker. Approximately […] of the compound of formula (2) was dispensed and transferred to the beaker under low to medium stirring. After 45 minutes of stirring at a temperature of about 25° C. (protected from light), the concentrate formed a clear, colorless solution with some small, white clumps of the compound of formula (2) floating in solution. The remaining clumps were gently broken-up using a spatula. Following an additional 45 minutes of stirring, the concentrate formed a clear, colorless solution without any visible solids. The concentrate was then filtered (0.2 μm) through a 0.22 μm PVDF syringe filter.
For t=0 h testing, aliquots were distributed into vials and analyzed by HPLC (XBridge Phenyl Column (Waters); UV absorbance detector at 272 nm; mobile phase a step gradient of aqueous acetonitrile containing 0.1% (v/v) formic acid) and the sample pH was determined. Twelve aliquots of 1 mL of the concentrate were distributed into microcentrifuge tubes for storage at 4° C. and 25° C. After approximately 24, 72 and 168 hours of storage, two aliquots were removed from each storage condition and assessed for visual appearance, pH, and concentration and purity by HPLC. […] The pH of the samples stored at 4° C. and 25° C. decreased from 3.7 to 3.6 and 3.3, respectively, over the 7 days. In Table 12, the term “c/c” refers to clear and colorless.

CS(=O)(=O)c1cccc(S(=O)(=O)NO)c1 [Compound 2, N-Hydroxy-3-methanesulfonylbenzene-1-sulfonamide]
concentration sustained (4° C. and 25° C., over 7 days): 30000 µg/mL | known degradant (compound of formula (101)) (4° C. and 25° C., over 7 days): No detectable levels | visual appearance of all samples (4° C. and 25° C., over 7 days): clear, colorless solutions | Concentration, mg/mL 0 h (4° C.): 30.3 mg/mL | Concentration, mg/mL 24 h (4° C.): 30.6 mg/mL and 30.2 mg/mL | Concentration, mg/mL 72 h (4° C.): 29.6 mg/mL and 29.4 mg/mL | Concentration, mg/mL 168 h (4° C.): 29.7 mg/mL and 29.9 mg/mL | Appearance 0 h (4° C.): c/c | Appearance 24 h (4° C.): c/c | Appearance 72 h (4° C.): c/c | Appearance 168 h (4° C.): c/c | Observed Degradant, Compound of Formula (101), mg/mL 0 h (4° C.): No | Observed Degradant, Compound of Formula (101), mg/mL 24 h (4° C.): No | Observed Degradant, Compound of Formula (101), mg/mL 72 h (4° C.): No | Observed Degradant, Compound of Formula (101), mg/mL 168 h (4° C.): No | pH 0 h (4° C.): 3.7 and 3.71 | pH 24 h (4° C.): 3.70 | pH 72 h (4° C.): 3.66 | pH 168 h (4° C.): 3.6 and 3.61 and 3.58 | Concentration, mg/mL 0 h (25° C.): 30.3 mg/mL | Concentration, mg/mL 24 h (25° C.): 30.2 mg/mL | Concentration, mg/mL 72 h (25° C.): 29.4 mg/mL and 29.8 mg/mL | Concentration, mg/mL 168 h (25° C.): 29.5 mg/mL and 29.4 mg/mL | Appearance 0 h (25° C.): c/c | Appearance 24 h (25° C.): c/c | Appearance 72 h (25° C.): c/c | Appearance 168 h (25° C.): c/c | Observed Degradant, Compound of Formula (101), mg/mL 0 h (25° C.): No | Observed Degradant, Compound of Formula (101), mg/mL 24 h (25° C.): No | Observed Degradant, Compound of Formula (101), mg/mL 72 h (25° C.): No | Observed Degradant, Compound of Formula (101), mg/mL 168 h (25° C.): No | pH 0 h (25° C.): 3.71 | pH 24 h (25° C.): 3.47 and 3.48 | pH 72 h (25° C.): 3.34 | pH 168 h (25° C.): 3.3 and 3.32
